# Laboratory results published in US11541055B2, “Inhibitors of human immunodeficiency virus replication” (ViiV Healthcare UK (No. 5) LIMITED, priority 2018, dated 2023).
# pEC50: −log10 of the molar value.
# What was measured:
# [1] = test system: recombinant NL4-3 virus (Renilla luciferase) in MT-2 cells; assay: HIV cell culture assay (antiviral activity, luciferase readout); format: cell-based; details: Renilla, NL43
# Outline: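 MT-2 cells were infected with recombinant NL4-3 virus carrying Renilla luciferase in place of part of nef. Cells were cultured 4–5 days with serially diluted compound, and luciferase was measured with a live-cell substrate. EC50 was calculated from the median effect equation.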
# [2] = Compound cytotoxicity, XTT-based colorimetric assay; format: cell-based; details: human; uninfected MT2 cells, day 4, XTT
# Outline: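 Run under the antiviral-assay protocol but without virus. Viability was read on day 4 and CC50 values were derived from the readout.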
Structure (SMILES),pEC50 [1],CC50 at 4 days [2] [nM]
"CCc1nccnc1-c1ccc2c(=O)n(-c3ccc(Cl)c4c(NS(C)(=O)=O)nn(C)c34)c([C@H](Cc3cc(F)cc(F)c3)NC(=O)Cn3nc(C(F)F)c4c3C(F)(F)[C@@H]3C[C@H]43)nc2c1 (atropisomer, axis not shown; (P)) [Example 17, N—((S)-1-((3P)-3-(4-chloro-1-methyl-3-(methylsulfonamido)-1H-indazol-7-yl)-7-(3-ethylpyrazin-2-yl)-4-oxo-3,4-dihydroquinazolin-2-yl)-2-(3,5-difluorophenyl)ethyl)-2-((3bS,4aR)-3-(difluoromethyl)-5,5-difluoro-3b,4,4a,5-tetrahydro-1H-cyclopropa[3,4]cyclopenta[1,2-c]pyrazol-1-yl)acetamide]",9.96,> 500
"Cc1ccnc(-c2ccc3c(=O)n(-c4ccc(Cl)c5c(NS(C)(=O)=O)nn(C)c45)c([C@H](Cc4cc(F)cc(F)c4)NC(=O)Cn4nc(C(F)F)c5c4C(F)(F)[C@@H]4C[C@H]54)nc3c2)c1 (atropisomer, axis not shown; (P)) [Example 2, N—((S)-1-((3P)-3-(4-chloro-1-methyl-3-(methylsulfonamido)-1H-indazol-7-yl)-7-(4-methylpyridin-2-yl)-4-oxo-3,4-dihydroquinazolin-2-yl)-2-(3,5-difluorophenyl)ethyl)-2-((3bS,4aR)-3-(difluoromethyl)-5,5-difluoro-3b,4,4a,5-tetrahydro-1H-cyclopropa[3,4]cyclopenta[1,2-c]pyrazol-1-yl)acetamide]",10.23,> 500
"Cc1ncc(-c2ccc3c(=O)n(-c4ccc(Cl)c5c(NS(C)(=O)=O)nn(CC(F)(F)F)c45)c([C@H](Cc4cc(F)cc(F)c4)NC(=O)Cn4nc(C(F)F)c5c4C(F)(F)[C@@H]4C[C@H]54)nc3c2)s1 (atropisomer, axis not shown) [Example 114]",9.82,> 500
"Cc1ncnc(C)c1-c1ccc2c(=O)n(-c3ccc(Cl)c4c(NS(C)(=O)=O)nn(C)c34)c([C@H](Cc3cc(F)cc(F)c3)NC(=O)Cn3nc(C(F)F)c4c3C(F)(F)[C@@H]3C[C@H]43)nc2c1 (atropisomer, axis not shown; (P)) [Example 40, N—((S)-1-((3P)-3-(4-chloro-1-methyl-3-(methylsulfonamido)-1H-indazol-7-yl)-7-(4,6-dimethylpyrimidin-5-yl)-4-oxo-3,4-dihydroquinazolin-2-yl)-2-(3,5-difluorophenyl)ethyl)-2-((3bS,4aR)-3-(difluoromethyl)-5,5-difluoro-3b,4,4a,5-tetrahydro-1H-cyclopropa[3,4]cyclopenta[1,2-c]pyrazol-1-yl)acetamide]",10.28,> 500
"Cc1cc(-c2ccc3c(=O)n(-c4ccc(Cl)c5c(NS(C)(=O)=O)nn(C)c45)c([C@H](Cc4cc(F)cc(F)c4)NC(=O)Cn4nc(C(F)F)c5c4C(F)(F)[C@@H]4C[C@H]54)nc3c2)nc(CO)n1 (atropisomer, axis not shown) [Example 118, N-[(1S)-1-[3-(4-chloro-3-methanesulfonamido-1-methyl-1H-indazol-7-yl)-7-[2-(hydroxymethyl)-6-methylpyrimidin-4-yl]-4-oxo-3,4-dihydroquinazolin-2-yl]-2-(3,5-difluorophenyl)ethyl]-2-[(2S,4R)-9-(difluoromethyl)-5,5-difluoro-7,8-diazatricyclo[4.3.0.0^2,^4]nona-1(6),8-dien-7-y]acetamide]",10.32,> 500
"COc1ncc(-c2ccc3c(=O)n(-c4ccc(Cl)c5c(NS(C)(=O)=O)nn(C)c45)c([C@H](Cc4cc(F)cc(F)c4)NC(=O)Cn4nc(C(F)F)c5c4C(F)(F)[C@@H]4C[C@H]54)nc3c2)cn1 (atropisomer, axis not shown; (P)) [Example 39, N—((S)-1-((3P)-3-(4-chloro-1-methyl-3-(methylsulfonamido)-1H-indazol-7-yl)-7-(2-methoxypyrimidin-5-yl)-4-oxo-3,4-dihydroquinazolin-2-yl)-2-(3,5-difluorophenyl)ethyl)-2-((3bS,4aR)-3-(difluoromethyl)-5,5-difluoro-3b,4,4a,5-tetrahydro-1H-cyclopropa[3,4]cyclopenta[1,2-c]pyrazol-1-yl)acetamide]",10.38,> 500
"CC(C)c1cccc(-c2ccc3c(=O)n(-c4ccc(Cl)c5c(NS(C)(=O)=O)nn(C)c45)c([C@H](Cc4cc(F)cc(F)c4)NC(=O)Cn4nc(C(F)F)c5c4C(F)(F)[C@@H]4C[C@H]54)nc3c2)n1 (atropisomer, axis not shown; (P)) [Example 46, N—((S)-1-((3P)-3-(4-chloro-1-methyl-3-(methylsulfonamido)-1H-indazol-7-yl)-7-(6-isopropylpyridin-2-yl)-4-oxo-3,4-dihydroquinazolin-2-yl)-2-(3,5-difluorophenyl)ethyl)-2-((3bS,4aR)-3-(difluoromethyl)-5,5-difluoro-3b,4,4a,5-tetrahydro-1H-cyclopropa[3,4]cyclopenta[1,2-c]pyrazol-1-yl)acetamide]",9.64,> 500
"COc1cnc(-c2ccc3c(=O)n(-c4ccc(Cl)c5c(NS(C)(=O)=O)nn(C)c45)c([C@H](Cc4cc(F)cc(F)c4)NC(=O)Cn4nc(C(F)F)c5c4C(F)(F)[C@@H]4C[C@H]54)nc3c2)nc1 (atropisomer, axis not shown; (P)) [Example 34, N—((S)-1-((3P)-3-(4-chloro-1-methyl-3-(methylsulfonamido)-1H-indazol-7-yl)-7-(5-methoxypyrimidin-2-yl)-4-oxo-3,4-dihydroquinazolin-2-yl)-2-(3,5-difluorophenyl)ethyl)-2-((3bS,4aR)-3-(difluoromethyl)-5,5-difluoro-3b,4,4a,5-tetrahydro-1H-cyclopropa[3,4]cyclopenta[1,2-c]pyrazol-1-yl)acetamide]",10.24,> 500
"Cn1nc(NS(C)(=O)=O)c2c(Cl)ccc(-n3c([C@H](Cc4cc(F)cc(F)c4)NC(=O)Cn4nc(C(F)F)c5c4C(F)(F)[C@@H]4C[C@H]54)nc4cc(-c5cccc(C6CC6)n5)ccc4c3=O)c21 (atropisomer, axis not shown; (P)) [Example 41, N—((S)-1-((3P)-3-(4-chloro-1-methyl-3-(methylsulfonamido)-1H-indazol-7-yl)-7-(6-cyclopropylpyridin-2-yl)-4-oxo-3,4-dihydroquinazolin-2-yl)-2-(3,5-difluorophenyl)ethyl)-2-((3bS,4aR)-3-(difluoromethyl)-5,5-difluoro-3b,4,4a,5-tetrahydro-1H-cyclopropa[3,4]cyclopenta[1,2-c]pyrazol-1-yl)acetamide]",9.48,> 500
"Cc1ccc(F)c(-c2ccc3c(=O)n(-c4ccc(Cl)c5c(NS(=O)(=O)C6CC6)nn(CC(F)F)c45)c([C@H](Cc4cc(F)cc(F)c4)NC(=O)Cn4nc(C(F)F)c5c4C(F)(F)[C@@H]4C[C@H]54)nc3c2)n1 (atropisomer, axis not shown) [Example 96, N-[(1S)-1-{3-[4-chloro-3-cyclopropanesulfonamido-1-(2,2-difluoroethyl)-1H-indazol-7-yl]-7-(3-fluoro-6-methylpyridin-2-yl)-4-oxo-3,4-dihydroquinazolin-2-yl}-2-(3,5-difluorophenyl)ethyl]-2-[(2S,4R)-9-(difluoromethyl)-5,5-difluoro-7,8-diazatricyclo[4.3.0.0^2,^4]nona-1(6),8-dien-7-yl]acetamide]",9.62,> 500
"Cn1nc(NS(C)(=O)=O)c2c(Cl)ccc(-n3c([C@H](Cc4cc(F)cc(F)c4)NC(=O)Cn4nc(C(F)F)c5c4C(F)(F)[C@@H]4C[C@H]54)nc4cc(-c5nccc(C(C)(C)C)n5)ccc4c3=O)c21 (atropisomer, axis not shown; (P)) [Example 47, N—((S)-1-(7-(4-(tert-butyl)pyrimidin-2-yl)-(3P)-3-(4-chloro-1-methyl-3-(methylsulfonamido)-1H-indazol-7-yl)-4-oxo-3,4-dihydroquinazolin-2-yl)-2-(3,5-difluorophenyl)ethyl)-2-((3bS,4aR)-3-(difluoromethyl)-5,5-difluoro-3b,4,4a,5-tetrahydro-1H-cyclopropa[3,4]cyclopenta[1,2-c]pyrazol-1-yl)acetamide]",9.72,> 500
"Cc1ncc(C)c(-c2ccc3c(=O)n(-c4ccc(Cl)c5c(NS(C)(=O)=O)nn(C)c45)c([C@H](Cc4cc(F)cc(F)c4)NC(=O)Cn4nc(C(F)F)c5c4C(F)(F)[C@@H]4C[C@H]54)nc3c2)n1 (atropisomer, axis not shown; (P)) [Example 77, N—((S)-1-((3P)-3-(4-chloro-1-methyl-3-(methylsulfonamido)-1H-indazol-7-yl)-7-(2,5-dimethylpyrimidin-4-yl)-4-oxo-3,4-dihydroquinazolin-2-yl)-2-(3,5-difluorophenyl)ethyl)-2-((3bS,4aR)-3-(difluoromethyl)-5,5-difluoro-3b,4,4a,5-tetrahydro-1H-cyclopropa[3,4]cyclopenta[1,2-c]pyrazol-1-yl)acetamide]",10.15,> 500
"COc1ccc(-c2ccc3c(=O)n(-c4ccc(Cl)c5c(NS(C)(=O)=O)nn(CC(F)F)c45)c([C@H](Cc4cc(F)cc(F)c4)NC(=O)Cn4nc(C(F)F)c5c4C(F)(F)[C@@H]4C[C@H]54)nc3c2)nn1 (atropisomer, axis not shown) [Example 129, N-[(1S)-1-{3-[4-chloro-1-(2,2-difluoroethyl)-3-methanesulfonamido-1H-indazol-7-yl]-7-(6-methoxypyridazin-3-yl)-4-oxo-3,4-dihydroquinazolin-2-yl}-2-(3,5-difluorophenyl)ethyl]-2-[(2S,4R)-9-(difluoromethyl)-5,5-difluoro-7,8-diazatricyclo[4.3.0.0^2,^4]nona-1(6),8-dien-7-yl]acetamide]",10.27,> 500
